pEC50: −log10 of the molar value.
System: HBV
Experiment: Determination of HBV DNA from the supernatants of HepAD38 cells (anti-HBV activity)
Format: cell-based, hepatitis B virus
Conditions: Hepatitis B virus, 144 h; HBV DNA in HepAD38 supernatant at day 6; read-out: Cell Activity (EC50)
Protocol: Determination of HBV DNA from the Supernatants of HepAD38 Cells
The anti-HBV activity was analysed in the stable transfected cell line HepAD38, which has been described to secrete high levels of HBV virion particles (Ladner et al., 1997). In brief, HepAD38 cells were cultured at 37° C. at 5% CO2 and 95% humidity in 200 μl maintenance medium, which was Dulbecco's modified Eagle's medium/Nutrient Mixture F-12 (Gibco, Karlsruhe), 10% fetal bovine serum (PAN Biotech Aidenbach) supplemented with 50 μg/ml penicillin/streptomycin (Gibco, Karlsruhe), 2 mM L-glutamine (PAN Biotech, Aidenbach), 400 μg/ml G418 (AppliChem, Darmstadt) and 0.3 μg/ml tetracycline. Cells were subcultured once a week in a 1:5 ratio, but were usually not passaged more than ten times. For the assay 60,000 cells were seeded in maintenance medium without any tetracycline into each well of a 96-well plate and treated with serial half-log dilutions of test compound. To minimize edge effects the outer 36 wells of the plate were not used but were filled with assay medium. On each assay plate six wells for the virus control (untreated HepAD38 cells) and six wells for the cell control (HepAD38 cells treated with 0.3 μg/ml tetracycline) were allocated, respectively. In addition, one plate set with reference inhibitors like BAY 41-4109, entecavir, and lamivudine instead of screening compounds were prepared in each experiment. In general, experiments were performed thrice in triplicates. At day 6 HBV DNA from 100 μl filtrated cell culture supernatant (AcroPrep Advance 96 Filter Plate, […] Supor membran, PALL GmbH, Dreieich) was automatically purified on the MagNa Pure LC instrument using the MagNA Pure 96 DNA and Viral NA Small Volume Kit (Roche Diagnostics, Mannheim) according to the instructions of the manufacturer. EC50 values were calculated from relative copy numbers of HBV DNA. In brief, 5 μl of the 100 μl eluate containing HBV DNA were subjected to PCR LC480 Probes Master Kit (Roche) together with 1 μM antisense primer […], 0.5 μM sense primer […], 0.3 μM hybprobes […]-FL and LC640-[…]-PH (TIBMolBiol, Berlin) to a final volume of 12.5 μl. The PCR was performed on the Light Cycler 480 real time system (Roche Diagnostics, Mannheim) using the following protocol: Pre-incubation for 1 min at 95° C., amplification: 40 cycles×(10 sec at 95° C., 50 sec at 60° C., 1 sec at 70° C.), cooling for 10 sec at 40° C. Viral load was quantitated against known standards using HBV plasmid DNA of pCH-9/3091 (Nassal et al., 1990, Cell 63: 1357-1363) and the LightCycler 480 SW 1.5 software (Roche Diagnostics, Mannheim) and EC50 values were calculated using non-linear regression with GraphPad Prism 6 (GraphPad Software Inc., La Jolla, USA).

O=C(c1cc2ccccc2[nH]1)N1CCc2nc(Cl)sc2C1 [Example 207, 2-{2-chloro-4H,5H,6H,7H-[1,3]thiazolo[5,4-c]pyridine-5-carbonyl}-1H-indole]
pEC50: > 4.00

CCc1c(F)ccc2[nH]c(C(=O)N3CCc4nc(NCC5CCOC5)sc4C3)cc12 (stereo not shown) [Example 256, 5-(4-ethyl-5-fluoro-1H-indole-2-carbonyl)-N-[(oxolan-3-yl)methyl]-4H,5H,6H,7H-[1,3]thiazolo[5,4-c]pyridin-2-amine]
pEC50: > 4.00

CC(O)c1ccc(F)c2[nH]c(C(=O)N3CCc4nc(NCC5CCOC5)sc4C3)cc12 (stereo not shown) [Example 257, 1-[7-fluoro-2-(2-{[(oxolan-3-yl)methyl]amino}-4H,5H,6H,7H-[1,3]thiazolo[5,4-c]pyridine-5-carbonyl)-1H-indol-4-yl]ethan-1-ol]
pEC50: > 4.00

CC(C)CC(CO)CNc1nc2c(s1)CN(C(=O)c1cc3ccccc3[nH]1)CC2 (stereo not shown) [Example 287, 2-({[5-(1H-indole-2-carbonyl)-4H,5H,6H,7H-[1,3]thiazolo[5,4-c]pyridin-2-yl]amino}methyl)-4-methylpentan-1-ol]
pEC50: > 6.00

CC1(C(=O)Nc2nc3c(s2)CN(C(=O)c2cc4cc(F)c(Cl)cc4[nH]2)CC3)CC1 [Example 304, N-[5-(6-chloro-5-fluoro-1H-indole-2-carbonyl)-4H,5H,6H,7H-[1,3]thiazolo[5,4-c]pyridin-2-yl]-1-methylcyclopropane-1-carboxamide]
pEC50: > 6.00

CC1(C(=O)Nc2nc3c(s2)CN(C(=O)c2cc4c(Cl)cc(F)cc4[nH]2)CC3)CC1 [Example 305, N-[5-(4-chloro-6-fluoro-1H-indole-2-carbonyl)-4H,5H,6H,7H-[1,3]thiazolo[5,4-c]pyridin-2-yl]-1-methylcyclopropane-1-carboxamide]
pEC50: > 6.00

CCc1cc(F)cc2[nH]c(C(=O)N3CCc4nc(NC(=O)C5(C)CC5)sc4C3)cc12 [Example 306, N-[5-(4-ethyl-6-fluoro-1H-indole-2-carbonyl)-4H,5H,6H,7H-[1,3]thiazolo[5,4-c]pyridin-2-yl]-1-methylcyclopropane-1-carboxamide]
pEC50: > 6.00

Cc1cc(F)cc2[nH]c(C(=O)N3CCc4nc(NC(=O)C5(C)CC5)sc4C3)cc12 [Example 307, N-[5-(6-fluoro-4-methyl-1H-indole-2-carbonyl)-4H,5H,6H,7H-[1,3]thiazolo[5,4-c]pyridin-2-yl]-1-methylcyclopropane-1-carboxamide]
pEC50: > 6.00

CC1(C(=O)Nc2nc3c(s2)CN(C(=O)c2cc4c(Cl)cccc4[nH]2)CC3)CC1 [Example 308, N-[5-(4-chloro-1H-indole-2-carbonyl)-4H,5H,6H,7H-[1,3]thiazolo[5,4-c]pyridin-2-yl]-1-methylcyclopropane-1-carboxamide]
pEC50: > 6.00

CCOC(=O)C1(CNc2nc3c(s2)CN(C(=O)c2cc4ccccc4[nH]2)CC3)CC1 [Example 317, Ethyl 1-({[5-(1H-indole-2-carbonyl)-4H,5H,6H,7H-[1,3]thiazolo[5,4-c]pyridin-2-yl]amino}methyl)cyclopropane-1-carboxylate]
pEC50: 5.00 to 6.00

O=C(c1cc2ccccc2[nH]1)N1CCc2nc(NC(=O)C3(F)CC3)sc2C1 [Example 337, 1-fluoro-N-[5-(1H-indole-2-carbonyl)-4H,5H,6H,7H-[1,3]thiazolo[5,4-c]pyridin-2-yl]cyclopropane-1-carboxamide]
pEC50: > 6.00

O=C(c1cc2c(Cl)cc(F)cc2[nH]1)N1CCc2nc(N[C@H]3CC[C@@H](O)CC3)sc2C1 [Example 343, (1s,4s)-4-{[5-(4-chloro-6-fluoro-1H-indole-2-carbonyl)-4H,5H,6H,7H-[1,3]thiazolo[5,4-c]pyridin-2-yl]amino}cyclohexan-1-ol]
pEC50: > 6.00

O=C(c1cc2ccccc2[nH]1)N1CCc2nc(NCC3(C(=O)O)CC3)sc2C1 [Example 345, 1-({[5-(1H-indole-2-carbonyl)-4H,5H,6H,7H-[1,3]thiazolo[5,4-c]pyridin-2-yl]amino}methyl)cyclopropane-1-carboxylic acid]
pEC50: 5.00 to 6.00
